In publication PMC3130079 (2011):

Biological target: TRPA1 (Mus musculus, UniProt Q8BLA8)
Test: Ca2+ imaging and whole-cell patch clamp in TRPA1-transfected CHO cells
Type: cell-based

Chain of TRPA1 (Q8BLA8 whole entry): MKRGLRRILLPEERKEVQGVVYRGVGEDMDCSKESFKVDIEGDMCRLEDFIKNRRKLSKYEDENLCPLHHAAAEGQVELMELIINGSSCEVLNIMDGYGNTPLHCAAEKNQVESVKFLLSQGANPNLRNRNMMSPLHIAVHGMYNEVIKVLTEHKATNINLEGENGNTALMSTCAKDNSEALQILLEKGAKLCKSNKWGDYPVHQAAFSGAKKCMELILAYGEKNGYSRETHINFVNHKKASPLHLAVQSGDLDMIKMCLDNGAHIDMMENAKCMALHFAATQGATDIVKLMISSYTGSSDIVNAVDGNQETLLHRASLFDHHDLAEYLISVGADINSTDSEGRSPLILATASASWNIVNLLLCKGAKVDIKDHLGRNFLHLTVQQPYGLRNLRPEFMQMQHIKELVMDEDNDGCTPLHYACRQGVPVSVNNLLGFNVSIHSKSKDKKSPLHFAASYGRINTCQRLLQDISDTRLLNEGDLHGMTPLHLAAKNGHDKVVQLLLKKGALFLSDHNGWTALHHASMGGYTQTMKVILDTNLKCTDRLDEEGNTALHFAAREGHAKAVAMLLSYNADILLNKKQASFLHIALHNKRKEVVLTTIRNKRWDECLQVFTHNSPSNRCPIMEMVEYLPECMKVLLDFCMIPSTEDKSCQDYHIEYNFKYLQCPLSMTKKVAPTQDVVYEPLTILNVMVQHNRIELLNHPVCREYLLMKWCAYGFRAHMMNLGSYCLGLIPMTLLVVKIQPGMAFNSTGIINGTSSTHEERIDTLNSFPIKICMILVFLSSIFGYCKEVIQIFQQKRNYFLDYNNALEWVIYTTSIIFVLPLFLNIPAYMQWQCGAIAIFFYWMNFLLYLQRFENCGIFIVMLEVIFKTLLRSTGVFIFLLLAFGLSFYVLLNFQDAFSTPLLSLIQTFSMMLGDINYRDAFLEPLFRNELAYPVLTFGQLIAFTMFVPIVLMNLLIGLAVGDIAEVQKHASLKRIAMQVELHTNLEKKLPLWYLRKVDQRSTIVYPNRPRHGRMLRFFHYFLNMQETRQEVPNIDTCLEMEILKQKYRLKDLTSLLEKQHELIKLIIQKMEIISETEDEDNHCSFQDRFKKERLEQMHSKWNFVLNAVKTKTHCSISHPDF

SMILES: COc1ccc(C(=O)c2c(C)n(CCN3CCOCC3)c3cc(I)ccc23)cc1 [AM630]
- EC50: 2000 nM
